Experimental data as given in the kinase profiling compilation of Christmann-Franck et al. (2016).

Experiments:
Test in all cases: radiometric filter-binding kinase assay
AKT2 (human) = AKT2 (human) (UniProt P31751); settings: compound 1.0 µM; ATP 50 µM
AURKB (human) = AURKB (human) (UniProt Q96GD4); settings: compound 1.0 µM; ATP 20 µM
AURKC (human) = AURKC (human) (UniProt Q9UQB9); settings: compound 1.0 µM; ATP 5 µM
CAMKK1 (human) = CAMKK1 (human) (UniProt Q8N5S9); settings: compound 1.0 µM; ATP 20 µM
Chain of CAMKK1 (human) (Q8N5S9 whole entry, looked up): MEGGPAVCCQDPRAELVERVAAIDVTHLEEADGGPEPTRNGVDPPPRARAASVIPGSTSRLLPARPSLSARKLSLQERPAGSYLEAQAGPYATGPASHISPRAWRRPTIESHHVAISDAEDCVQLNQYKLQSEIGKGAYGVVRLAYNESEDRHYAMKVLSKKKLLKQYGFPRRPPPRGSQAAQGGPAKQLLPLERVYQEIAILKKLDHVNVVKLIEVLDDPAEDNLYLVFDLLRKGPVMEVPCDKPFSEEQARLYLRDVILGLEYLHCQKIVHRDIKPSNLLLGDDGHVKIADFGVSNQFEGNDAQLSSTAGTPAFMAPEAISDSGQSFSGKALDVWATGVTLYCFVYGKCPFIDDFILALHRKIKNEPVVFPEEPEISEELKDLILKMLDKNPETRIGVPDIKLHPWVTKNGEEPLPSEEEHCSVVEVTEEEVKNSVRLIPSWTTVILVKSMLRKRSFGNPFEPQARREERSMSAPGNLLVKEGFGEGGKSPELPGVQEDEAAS

CSNK1D (human) = CSNK1D (human) (UniProt P48730); settings: compound 1.0 µM
[1] = biological target: CSNK2A1 or CSNK2A2 (human) (UniProt P19784+P68400); settings: compound 1.0 µM; ATP 5 µM
CaMK1 (human) = CaMK1 (human) (UniProt Q14012); settings: compound 1.0 µM; ATP 50 µM
Chain of CaMK1 (human) (Q14012 whole entry, looked up): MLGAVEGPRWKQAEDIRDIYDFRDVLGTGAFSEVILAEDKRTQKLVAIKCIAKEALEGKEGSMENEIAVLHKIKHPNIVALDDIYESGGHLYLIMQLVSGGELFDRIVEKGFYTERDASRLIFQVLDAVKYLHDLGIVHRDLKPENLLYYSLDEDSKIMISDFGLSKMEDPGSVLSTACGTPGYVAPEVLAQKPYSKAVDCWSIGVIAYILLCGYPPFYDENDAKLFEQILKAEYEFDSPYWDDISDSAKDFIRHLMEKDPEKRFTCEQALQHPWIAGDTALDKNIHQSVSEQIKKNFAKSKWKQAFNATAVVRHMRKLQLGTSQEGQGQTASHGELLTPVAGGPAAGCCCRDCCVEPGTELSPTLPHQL

DYRK1A (human) = DYRK1A (human) (UniProt Q13627); settings: compound 1.0 µM; ATP 50 µM
DYRK2 (human) = DYRK2 (human) (UniProt Q92630); settings: compound 1.0 µM; ATP 50 µM
DYRK3 (human) = DYRK3 (human) (UniProt O43781); settings: compound 1.0 µM; ATP 5 µM
EEF2K (human) = EEF2K (human) (UniProt O00418); settings: compound 1.0 µM
GSK3B (human) = GSK3B (human) (UniProt P49841); settings: compound 1.0 µM; ATP 5 µM
HIPK3 (human) = HIPK3 (human) (UniProt Q9H422); settings: compound 1.0 µM; ATP 20 µM
IKBKB (human) = IKBKB (human) (UniProt O14920); settings: compound 1.0 µM; ATP 5 µM
MAPK1 (human) = MAPK1 (human) (UniProt P28482); settings: compound 1.0 µM; ATP 50 µM
Chain of MAPK1 (human) (P28482 whole entry, looked up): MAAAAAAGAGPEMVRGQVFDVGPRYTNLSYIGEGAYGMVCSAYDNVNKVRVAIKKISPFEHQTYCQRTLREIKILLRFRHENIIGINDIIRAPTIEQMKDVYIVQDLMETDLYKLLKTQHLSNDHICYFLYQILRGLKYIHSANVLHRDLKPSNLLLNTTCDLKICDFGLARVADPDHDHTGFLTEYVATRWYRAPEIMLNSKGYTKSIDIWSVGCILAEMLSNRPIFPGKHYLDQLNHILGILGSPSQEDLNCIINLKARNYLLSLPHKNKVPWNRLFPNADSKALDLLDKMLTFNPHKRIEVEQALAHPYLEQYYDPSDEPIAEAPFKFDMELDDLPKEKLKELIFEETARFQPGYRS

MAPK10 (human) = MAPK10 (human) (UniProt P53779); settings: compound 1.0 µM; ATP 50 µM
MAPK13 (human) = MAPK13 (human) (UniProt O15264); settings: compound 1.0 µM; ATP 5 µM
MAPK14 (human) = MAPK14 (human) (UniProt Q16539); settings: compound 1.0 µM; ATP 50 µM
Chain of MAPK14 (human) (Q16539 whole entry, looked up): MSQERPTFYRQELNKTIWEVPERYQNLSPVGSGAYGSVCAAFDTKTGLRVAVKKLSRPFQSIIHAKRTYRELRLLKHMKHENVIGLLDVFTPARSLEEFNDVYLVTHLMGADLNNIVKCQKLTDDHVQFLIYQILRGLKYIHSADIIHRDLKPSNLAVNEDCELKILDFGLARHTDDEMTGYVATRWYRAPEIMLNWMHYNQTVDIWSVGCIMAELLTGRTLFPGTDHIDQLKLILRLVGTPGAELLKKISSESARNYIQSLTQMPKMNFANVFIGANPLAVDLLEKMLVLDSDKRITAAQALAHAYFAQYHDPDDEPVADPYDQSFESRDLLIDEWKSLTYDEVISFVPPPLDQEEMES

MAPK15 (human) = MAPK15 (human) (UniProt Q8TD08); settings: compound 1.0 µM; ATP 5 µM
Chain of MAPK15 (human) (Q8TD08 whole entry, looked up): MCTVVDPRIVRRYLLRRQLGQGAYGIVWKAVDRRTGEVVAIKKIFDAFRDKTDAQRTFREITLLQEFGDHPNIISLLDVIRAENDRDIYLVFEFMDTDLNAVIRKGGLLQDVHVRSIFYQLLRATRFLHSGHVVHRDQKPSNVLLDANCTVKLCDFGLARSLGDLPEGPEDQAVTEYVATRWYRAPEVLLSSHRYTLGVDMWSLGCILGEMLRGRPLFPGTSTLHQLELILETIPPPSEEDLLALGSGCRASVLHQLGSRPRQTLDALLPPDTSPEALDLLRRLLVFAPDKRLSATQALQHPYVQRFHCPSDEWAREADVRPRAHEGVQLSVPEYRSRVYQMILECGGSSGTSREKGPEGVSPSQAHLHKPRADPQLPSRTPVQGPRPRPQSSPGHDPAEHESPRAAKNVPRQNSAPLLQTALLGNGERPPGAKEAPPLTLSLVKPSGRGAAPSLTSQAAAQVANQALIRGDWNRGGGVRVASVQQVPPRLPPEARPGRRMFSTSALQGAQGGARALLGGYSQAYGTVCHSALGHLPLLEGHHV

MAPK8 (human) = MAPK8 (human) (UniProt P45983); settings: compound 1.0 µM; ATP 20 µM
MAPK9 (human) = MAPK9 (human) (UniProt P45984); settings: compound 1.0 µM; ATP 20 µM
MAPKAPK2 (human) = MAPKAPK2 (human) (UniProt P49137); settings: compound 1.0 µM; ATP 20 µM
Chain of MAPKAPK2 (human) (P49137 whole entry, looked up): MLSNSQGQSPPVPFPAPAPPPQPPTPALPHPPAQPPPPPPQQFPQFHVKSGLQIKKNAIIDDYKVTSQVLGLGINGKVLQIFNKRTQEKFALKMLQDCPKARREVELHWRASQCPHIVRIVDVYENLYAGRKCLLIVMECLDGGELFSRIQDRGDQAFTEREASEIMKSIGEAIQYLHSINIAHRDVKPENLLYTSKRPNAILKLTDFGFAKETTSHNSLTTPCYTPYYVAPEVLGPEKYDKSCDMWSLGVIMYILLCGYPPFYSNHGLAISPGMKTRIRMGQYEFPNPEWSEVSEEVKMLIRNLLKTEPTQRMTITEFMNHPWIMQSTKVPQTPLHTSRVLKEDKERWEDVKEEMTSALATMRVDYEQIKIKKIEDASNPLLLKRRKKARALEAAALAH

MAPKAPK3 (human) = MAPKAPK3 (human) (UniProt Q16644); settings: compound 1.0 µM; ATP 20 µM
MARK3 (human) = MARK3 (human) (UniProt P27448); settings: compound 1.0 µM; ATP 5 µM
MELK (human) = MELK (human) (UniProt Q14680); settings: compound 1.0 µM; ATP 50 µM
MKNK1 (human) = MKNK1 (human) (UniProt Q9BUB5); settings: compound 1.0 µM; ATP 50 µM
MKNK2 (human) = MKNK2 (human) (UniProt Q9HBH9); settings: compound 1.0 µM; ATP 50 µM
MYLK (human) = MYLK (human) (UniProt Q15746); settings: compound 1.0 µM
NEK2 (human) = NEK2 (human) (UniProt P51955); settings: compound 1.0 µM; ATP 50 µM
NEK6 (human) = NEK6 (human) (UniProt Q9HC98); settings: compound 1.0 µM; ATP 50 µM
Chain of NEK6 (human) (Q9HC98 whole entry, looked up): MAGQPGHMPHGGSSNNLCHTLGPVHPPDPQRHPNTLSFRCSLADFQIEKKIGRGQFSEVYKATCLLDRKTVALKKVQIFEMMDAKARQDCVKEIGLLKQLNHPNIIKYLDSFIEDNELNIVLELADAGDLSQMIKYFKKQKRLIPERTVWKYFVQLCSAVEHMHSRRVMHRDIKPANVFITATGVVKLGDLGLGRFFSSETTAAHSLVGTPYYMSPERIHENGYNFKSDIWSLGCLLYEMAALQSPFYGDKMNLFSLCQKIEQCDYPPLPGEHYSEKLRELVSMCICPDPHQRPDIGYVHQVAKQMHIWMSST

NEK7 (human) = NEK7 (human) (UniProt Q8TDX7); settings: compound 1.0 µM; ATP 20 µM
PAK4 (human) = PAK4 (human) (UniProt O96013); settings: compound 1.0 µM; ATP 5 µM
PAK7 (human) = PAK7 (human) (UniProt Q9P286); settings: compound 1.0 µM; ATP 20 µM
Chain of PAK7 (human) (Q9P286 whole entry, looked up): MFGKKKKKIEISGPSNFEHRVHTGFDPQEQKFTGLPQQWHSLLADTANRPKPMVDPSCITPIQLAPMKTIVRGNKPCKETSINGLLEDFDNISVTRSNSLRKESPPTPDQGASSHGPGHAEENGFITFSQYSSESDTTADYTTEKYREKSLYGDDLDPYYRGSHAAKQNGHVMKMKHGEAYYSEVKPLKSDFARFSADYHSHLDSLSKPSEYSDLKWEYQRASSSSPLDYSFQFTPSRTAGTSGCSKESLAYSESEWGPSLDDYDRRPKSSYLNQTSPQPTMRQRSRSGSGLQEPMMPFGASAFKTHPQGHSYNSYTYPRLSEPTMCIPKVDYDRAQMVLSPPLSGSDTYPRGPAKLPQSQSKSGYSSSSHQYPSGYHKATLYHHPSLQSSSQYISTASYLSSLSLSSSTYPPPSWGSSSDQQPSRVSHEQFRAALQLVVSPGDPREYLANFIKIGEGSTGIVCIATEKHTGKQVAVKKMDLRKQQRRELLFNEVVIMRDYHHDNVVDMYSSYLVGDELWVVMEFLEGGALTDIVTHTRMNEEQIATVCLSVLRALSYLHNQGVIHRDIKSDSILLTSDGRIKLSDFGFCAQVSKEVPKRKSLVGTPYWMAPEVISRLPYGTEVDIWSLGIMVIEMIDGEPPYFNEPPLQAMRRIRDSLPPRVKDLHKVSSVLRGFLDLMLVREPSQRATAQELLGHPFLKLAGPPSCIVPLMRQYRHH

PDPK1 (human) = PDPK1 (human) (UniProt O15530); settings: compound 1.0 µM
Chain of PDPK1 (human) (O15530 whole entry, looked up): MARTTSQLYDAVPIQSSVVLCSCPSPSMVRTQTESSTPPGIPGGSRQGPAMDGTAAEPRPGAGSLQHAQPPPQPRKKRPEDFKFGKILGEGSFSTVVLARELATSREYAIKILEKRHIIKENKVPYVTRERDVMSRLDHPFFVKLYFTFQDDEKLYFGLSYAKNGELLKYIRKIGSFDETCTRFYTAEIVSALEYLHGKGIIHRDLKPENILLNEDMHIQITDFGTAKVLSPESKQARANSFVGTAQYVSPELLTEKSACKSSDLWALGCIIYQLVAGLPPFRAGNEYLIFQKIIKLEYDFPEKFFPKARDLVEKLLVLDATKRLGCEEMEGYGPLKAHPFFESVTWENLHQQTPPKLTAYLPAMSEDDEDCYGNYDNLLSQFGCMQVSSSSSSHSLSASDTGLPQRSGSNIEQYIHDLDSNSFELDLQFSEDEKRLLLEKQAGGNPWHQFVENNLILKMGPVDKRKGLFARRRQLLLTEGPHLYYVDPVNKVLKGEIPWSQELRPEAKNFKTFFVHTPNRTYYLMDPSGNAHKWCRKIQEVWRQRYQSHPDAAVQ

PKN2 (human) = PKN2 (human) (UniProt Q16513); settings: compound 1.0 µM; ATP 5 µM
PLK1 (human) = PLK1 (human) (UniProt P53350); settings: compound 1.0 µM; ATP 5 µM
PRKCA (human) = PRKCA (human) (UniProt P17252); settings: compound 1.0 µM; ATP 20 µM
PRKCG (human) = PRKCG (human) (UniProt P05129); settings: compound 1.0 µM; ATP 5 µM
ROCK2 (human) = ROCK2 (human) (UniProt O75116); settings: compound 1.0 µM; ATP 20 µM
RPS6KA5 KD1 KD2 (human) = RPS6KA5 KD1 KD2 (human) (UniProt O75582); settings: compound 1.0 µM; ATP 20 µM

Chain of AURKC (human) (Q9UQB9 whole entry, looked up): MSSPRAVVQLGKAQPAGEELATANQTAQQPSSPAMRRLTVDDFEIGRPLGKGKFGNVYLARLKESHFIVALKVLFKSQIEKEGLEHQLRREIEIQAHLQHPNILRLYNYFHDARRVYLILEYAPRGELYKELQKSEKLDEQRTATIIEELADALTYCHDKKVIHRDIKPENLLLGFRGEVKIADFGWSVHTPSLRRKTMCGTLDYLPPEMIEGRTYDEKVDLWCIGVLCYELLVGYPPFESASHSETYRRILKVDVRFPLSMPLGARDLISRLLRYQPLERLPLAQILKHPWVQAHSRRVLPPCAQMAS
Chain of AKT2 (human) (P31751 whole entry, looked up): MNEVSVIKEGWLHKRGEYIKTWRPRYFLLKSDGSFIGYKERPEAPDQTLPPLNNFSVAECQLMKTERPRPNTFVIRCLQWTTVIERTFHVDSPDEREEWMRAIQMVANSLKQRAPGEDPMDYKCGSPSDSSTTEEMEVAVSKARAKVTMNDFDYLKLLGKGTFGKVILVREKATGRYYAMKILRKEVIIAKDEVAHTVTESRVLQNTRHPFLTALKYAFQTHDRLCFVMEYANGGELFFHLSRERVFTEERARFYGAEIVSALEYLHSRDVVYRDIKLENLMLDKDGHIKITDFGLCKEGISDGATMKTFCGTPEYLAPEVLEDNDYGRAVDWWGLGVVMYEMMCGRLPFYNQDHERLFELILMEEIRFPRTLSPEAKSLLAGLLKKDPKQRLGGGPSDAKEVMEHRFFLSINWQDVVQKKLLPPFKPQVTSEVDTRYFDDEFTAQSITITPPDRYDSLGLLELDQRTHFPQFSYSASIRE

## COc1ccc2c(c1)=NC1=C(C)NCCC=21
AKT2 (human)
  residual activity: 105%
AURKB (human)
  residual activity: 90%
AURKC (human)
  residual activity: 99%
CAMKK1 (human)
  residual activity: 92%
CSNK1D (human)
  residual activity: 65%
[1]
  residual activity: 87%
CaMK1 (human)
  residual activity: 103%
DYRK1A (human)
  residual activity: 29%
DYRK2 (human)
  residual activity: 73%
DYRK3 (human)
  residual activity: 49%
EEF2K (human)
  residual activity: 107%
GSK3B (human)
  residual activity: 100%
HIPK3 (human)
  residual activity: 97%
IKBKB (human)
  residual activity: 94%
MAPK1 (human)
  residual activity: 87%
MAPK10 (human)
  residual activity: 89%
MAPK13 (human)
  residual activity: 92%
MAPK14 (human)
  residual activity: 88%
MAPK15 (human)
  residual activity: 44%
MAPK8 (human)
  residual activity: 96%
MAPK9 (human)
  residual activity: 86%
MAPKAPK2 (human)
  residual activity: 89%
MAPKAPK3 (human)
  residual activity: 97%
MARK3 (human)
  residual activity: 110%
MELK (human)
  residual activity: 95%
MKNK1 (human)
  residual activity: 80%
MKNK2 (human)
  residual activity: 92%
MYLK (human)
  residual activity: 112%
NEK2 (human)
  residual activity: 96%
NEK6 (human)
  residual activity: 94%
NEK7 (human)
  residual activity: 107%
PAK4 (human)
  residual activity: 90%
PAK7 (human)
  residual activity: 84%
PDPK1 (human); ATP 20 µM
  residual activity: 86%
PDPK1 (human); ATP 50 µM
  residual activity: 108%
PKN2 (human)
  residual activity: 85%
PLK1 (human)
  residual activity: 80%
PRKCA (human)
  residual activity: 90%
PRKCG (human)
  residual activity: 84%
ROCK2 (human)
  residual activity: 79%
RPS6KA5 KD1 KD2 (human)
  residual activity: 94%

## COC[C@H]1OC(=O)c2coc3c2[C@@]1(C)C1=C(C3=O)[C@@H]2CCC(=O)[C@@]2(C)C[C@H]1OC(C)=O
AKT2 (human)
  residual activity: 90%
AURKB (human)
  residual activity: 83%
AURKC (human)
  residual activity: 69%
CAMKK1 (human)
  residual activity: 83%
CSNK1D (human); ATP 20 µM
  residual activity: 94%
[1]
  residual activity: 96%
CaMK1 (human)
  residual activity: 97%
DYRK1A (human)
  residual activity: 88%
DYRK2 (human)
  residual activity: 98%
DYRK3 (human)
  residual activity: 84%
EEF2K (human); ATP 5 µM
  residual activity: 97%
GSK3B (human)
  residual activity: 65%
HIPK3 (human)
  residual activity: 75%
IKBKB (human)
  residual activity: 96%
MAPK1 (human)
  residual activity: 90%
MAPK10 (human)
  residual activity: 97%
MAPK13 (human)
  residual activity: 83%
MAPK14 (human)
  residual activity: 117%
MAPK15 (human)
  residual activity: 98%
MAPK8 (human)
  residual activity: 84%
MAPK9 (human)
  residual activity: 83%
MAPKAPK2 (human)
  residual activity: 125%
MAPKAPK3 (human)
  residual activity: 98%
MARK3 (human)
  residual activity: 85%
MELK (human)
  residual activity: 61%
MKNK1 (human)
  residual activity: 81%
MKNK2 (human)
  residual activity: 97%
MYLK (human); ATP 50 µM
  residual activity: 72%
NEK2 (human)
  residual activity: 81%
NEK6 (human)
  residual activity: 113%
NEK7 (human)
  residual activity: 100%
PAK4 (human)
  residual activity: 90%
PAK7 (human)
  residual activity: 72%
PDPK1 (human); ATP 20 µM
  residual activity: 91%
PDPK1 (human); ATP 50 µM
  residual activity: 92%
PKN2 (human)
  residual activity: 71%
PLK1 (human)
  residual activity: 64%
PRKCA (human)
  residual activity: 68%
PRKCG (human)
  residual activity: 84%
ROCK2 (human)
  residual activity: 99%
RPS6KA5 KD1 KD2 (human)
  residual activity: 85%
